According to article PMC12720774, “Detergents alter the stability and lipid binding properties of the CD1d immunoreceptor” (Protein Science : A Publication of the Protein Society, 2025):
Counter-ions that a name gives are not always drawn.

Legend:
hCD1d [1] = molecular target: T1, hCD1d (Homo sapiens, UniProt P15813+P61769); assay: Detergent competition with 18:1 LPC binding to hCD1d (ITF, MST, nanoDSF); set-up: TEV protease cleavage site ENLYFQS (C); BirA biotinylation site (C); His7 (C); made in house; host or cells: TurboCHO cells (GenScript); details: 0.05% detergent
T1 sequence (P61769+P15813 fused): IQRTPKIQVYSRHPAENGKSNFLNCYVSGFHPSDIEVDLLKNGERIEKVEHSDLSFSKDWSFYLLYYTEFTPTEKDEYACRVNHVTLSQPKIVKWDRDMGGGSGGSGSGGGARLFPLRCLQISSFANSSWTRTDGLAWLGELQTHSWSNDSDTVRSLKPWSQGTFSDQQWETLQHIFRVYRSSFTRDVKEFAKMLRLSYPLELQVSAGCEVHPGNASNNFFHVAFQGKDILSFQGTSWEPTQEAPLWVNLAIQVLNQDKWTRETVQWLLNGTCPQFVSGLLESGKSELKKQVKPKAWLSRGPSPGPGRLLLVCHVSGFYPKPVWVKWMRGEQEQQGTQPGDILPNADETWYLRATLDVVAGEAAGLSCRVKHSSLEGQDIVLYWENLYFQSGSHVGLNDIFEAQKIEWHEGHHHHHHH
Method: We selected 18:1 LPC for the competition experiments since, first, a structure with hCD1d has been well characterized, and second, it binds hCD1d with moderate micromolar affinity, which is representative of many endogenous lipid antigens (Cantu et al., [2003]; López‐Sagaseta et al., [2012]). In the absence of detergent, 18:1 LPC produced concentration‐dependent changes in ITF and MST signal and decreased the melting temperature of hCD1d (ΔT m = −8.1 ± 1.7°C), indicative of specific binding and hCD1d destabilization (Figure 7c–e).
ITF spectra were recorded from 300 to 500 nm using a Horiba FL3‐21 Fluorometer with the excitation wavelength of 285 nm and excitation/emission slits of 6.2 nm. Fluorescence spectra of 50 to 100 nM hCD1d were acquired in the absence and presence of detergents in 1X PBS pH 7.4 at 25°C. Prior to data acquisition, hCD1d and detergent or lipid samples were incubated at 37°C overnight (~12 h) to simulate in vitro and in vivo loading conditions. […] For 18:1 LPC experiments, fluorescence spectra of 100 nM hCD1d were acquired in the absence and presence of 18:1 LPC in 1X PBS pH 7.4 at 25°C. […] For all ITF experiments, the change in fluorescence signal (F − F 0/F 0) was determined at 335 nm. Three replicates were performed, and data are presented as the mean ± standard deviation (n = 3). K D values were fitted with non‐linear regression in GraphPad Prism v10.1. […]

hCD1d [2] = molecular target: T1, hCD1d; assay: Nano differential scanning fluorimetry (nanoDSF) thermal stability; assay type: binding; set-up: TEV protease cleavage site ENLYFQS (C); BirA biotinylation site (C); His7 (C); made in house; host or cells: TurboCHO cells (GenScript); details: for ΔTm aveage: Figure 5C, nanoDSF, hCD1d with detergent; for ΔT m (NanoDSF): T m difference between hCD1d in the absence and presence of 1000 μM detergent, 1 μM hCD1d; for ΔT m, detergent class summary: approximate; for ΔT m (nanoDSF), lipid/hCD1d: absence vs maximum concentration of detergent, 1 μM endo/hCD1d (Figure S10); for detergent concentration at which hCD1d appeared to unfold: disappearance of inflection point in ∂(F350/F330)/∂T
Excerpt: We next sought to probe the ability of each detergent to influence the thermal stability of hCD1d. NanoDSF has been previously applied to measure lipid/detergent‐induced thermal stability changes in target proteins (Cecchetti et al., [2021]; Kotov et al., [2019]), but has not yet been applied to ligand binding to CD1. NanoDSF measures the ITF ratio (F 350 nm/F 330 nm) of proteins as a function of temperature to extract thermodynamic parameters. Given that ligand binding typically shifts the melting temperature of proteins, the effect of a ligand on protein stability can be approximated with the ΔT m value (the difference in T m with and without excess ligand) (Cecchetti et al., [2021]; Kotov et al., [2019]). We found all detergents tested to destabilize hCD1d, albeit to different degrees, with ΔT m values ranging from −0.8 to −14.2°C (Figures 4, S4, and Table 1).
Nano differential scanning fluorometry (nanoDSF) was performed using a Prometheus NT.48 (NanoTemper Technologies). Purified hCD1d at 1 μM in 1X PBS pH 7.4 was loaded into nanoDSF grade standard capillaries (NanoTemper Technologies) and exposed to temperatures ranging from 20 to 95°C with a thermal ramping rate of 1°C/min. Excitation power was set to 50%. The ratio of intrinsic fluorescence emission (F 350 nm/F 330 nm) was monitored. Melting temperatures (T m) were obtained from fitting the first derivative plots in the Prometheus NT.48 Software. The experiments were performed in triplicate, and data are presented as the mean ± standard deviation (n = 3).
For experiments with most detergents, prior to data acquisition, hCD1d and detergent or lipid samples were incubated at 37°C overnight (~12 h) to simulate in vitro and in vivo loading conditions. […] For 18:1 LPC experiments: nanoDSF spectra were acquired in the absence and presence of 18:1 LPC in 1X PBS pH 7.4 at 25°C.

Compound	effect of detergent on 18:1 LPC binding to hCD1d (in words) (hCD1d [1])	ΔTm aveage (hCD1d [2]) [°C]	ΔT m (NanoDSF) (hCD1d [2]) [°C]	ΔT m, detergent class summary (hCD1d [2]) [°C]	ΔT m (nanoDSF), lipid/hCD1d (hCD1d [2])	detergent concentration at which hCD1d appeared to unfold (hCD1d [2]) [µM]	ΔT m (NanoDSF) (hCD1d [2]; listed as Sodium deoxycholate) [°C]
C[C@H](CCC(=O)NCCC[N+](C)(C)CCCS(=O)(=O)[O-])[C@H]1CC[C@H]2[C@@H]3[C@H](O)C[C@@H]4C[C@H](O)CC[C@]4(C)[C@H]3C[C@H](O)[C@]12C [CHAPS, 3‐((3‐cholamidopropyl) dimethylammonio)‐1‐propanesulfonate]	did not robustly outcompete binding	-1.3	−1.3 ± 0.4	−1 to −2	–	–	–
CCCCCCCCO[C@@H]1O[C@H](CO)[C@@H](O)[C@H](O)[C@H]1O [ODG, n‐octyl‐β‐D‐glucopyranoside]	–	-0.83	−0.8 ± 0.4	−1 to −2	−0.2 to −0.8 °C	–	–
Tween 80	–	-9.7	-9.7 ± 0.4	−8 to −10	–	–	–
Tween 20	abolished nearly all detectable binding signals	-8.33	-8.3 ± 0.2	−8 to −10	≈ −8.3 °C	–	–
CCCCCCCCCCCCCCCC[N+](C)(C)C [CTAB, hexadecyltrimethylammonium bromide]	–	-14.17	−14.2 ± 0.8	−12 to −15	–	> 200	–
C[C@H](CCC(=O)O)[C@H]1CC[C@H]2[C@@H]3CC[C@@H]4C[C@H](O)CC[C@]4(C)[C@H]3C[C@H](O)[C@]12C [Deoxycholate, sodium deoxycholate]	–	-10	−10.0 ± 0.3	–	–	> 200	−10.0 ± 0.3
CCCCCCCCCCCCOS(=O)(=O)O [SDS, sodium dodecyl sulfate]	–	-13.07	−13.1 ± 0.7	−12 to −15	–	> 200	–
CCCCCCCCCCCC[N+](C)(C)[O-] [LDAO, lauryldimethylamine‐N‐oxide]	–	-13.43	−13.4 ± 0.1	−12 to −15	–	> 200	–
